{"source": "patent US6379676B2", "about": "“Enhancing immune response in animals” (priority 1999, dated 2002)", "test_system": "E. coli", "experimental": "The term “resistant to contamination by pathogenic bacteria” means that a challenge with 1000 colony forming units (CFU) per gram of feed results in the death of substantially all the bacteria within 24 to 72 hours. In particular, the term “resistance to contamination by Salmonella or E. coli” means that a challenge with 1000 CFUs of Salmonella or E. coli per gram of feed results in 1 CFU or less per 25 grams of feed after 24 hours incubation at 25° C.\nOne set of samples was treated with a coarse spray (270 microns) at 1.8 gal/hr. (6.81 liters/hr.) and another was treated with fine mist (43 microns) at 25.5 gal/hr. (96.5 liters/hr.). Each sample of 500 grams was challenged with 20 ml of a liquid inoculum of Escherishia coli (>10^6 CFU/ml) one week after treatment."}
{"smiles": "C=O", "note": "[formaldehyde]", "values": [{"measurement": "time finished feed resists contamination by E. coli", "setting": "2 lbs. (0.91 kg) dry wt. per metric ton, 2.0% CV, 1000 CFUs/gram of feed", "result": "about 60 days"}, {"measurement": "resistance as measured by challenge with E. coli", "setting": "4 lbs. (1.81 kg) dry wt. per metric ton of finished feed, 7% CV, 1000 CFU/gram of feed", "result": "about 30 days"}]}
